From patent US20080045504A1, “Benzonitrile Derivatives to Treat Musculoskeletal Frailty” (PFIZER PRODUCTS INC., priority 2004, published 2008)

What was measured:
[1] = target: T1, recombinant human androgen receptor (hAR) (Homo sapiens, UniProt P10275); test: Human androgen receptor binding analysis (3H-DHT competitive binding)
T1 construct: made in house; host or cells: baculovirus/Sf9 insect cells (crude extract)
T1 sequence (P10275 1-920): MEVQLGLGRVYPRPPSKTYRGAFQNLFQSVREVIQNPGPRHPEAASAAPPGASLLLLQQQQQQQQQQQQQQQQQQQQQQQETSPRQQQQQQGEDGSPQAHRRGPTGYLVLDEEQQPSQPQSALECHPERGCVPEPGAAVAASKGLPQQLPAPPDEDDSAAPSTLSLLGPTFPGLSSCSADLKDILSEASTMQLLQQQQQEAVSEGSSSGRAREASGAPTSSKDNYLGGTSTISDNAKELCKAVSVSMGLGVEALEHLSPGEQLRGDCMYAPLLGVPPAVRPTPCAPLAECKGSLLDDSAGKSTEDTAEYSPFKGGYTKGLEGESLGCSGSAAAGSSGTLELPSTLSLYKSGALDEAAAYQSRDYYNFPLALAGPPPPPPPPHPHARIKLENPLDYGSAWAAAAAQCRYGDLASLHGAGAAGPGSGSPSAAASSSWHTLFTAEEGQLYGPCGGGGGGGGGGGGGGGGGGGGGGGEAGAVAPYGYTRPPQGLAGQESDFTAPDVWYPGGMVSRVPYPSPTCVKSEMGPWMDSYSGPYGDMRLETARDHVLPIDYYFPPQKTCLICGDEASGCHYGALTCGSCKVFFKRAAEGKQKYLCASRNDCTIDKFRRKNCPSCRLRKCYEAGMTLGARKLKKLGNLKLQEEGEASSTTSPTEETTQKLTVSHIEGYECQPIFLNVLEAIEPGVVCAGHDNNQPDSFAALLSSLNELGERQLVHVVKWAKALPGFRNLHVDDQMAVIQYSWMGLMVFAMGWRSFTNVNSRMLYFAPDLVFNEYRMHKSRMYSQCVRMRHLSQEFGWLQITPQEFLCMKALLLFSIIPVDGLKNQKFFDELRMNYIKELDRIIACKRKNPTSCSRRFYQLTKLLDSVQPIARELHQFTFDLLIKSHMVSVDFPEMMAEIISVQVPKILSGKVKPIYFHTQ
Method: The following is a brief description of the assay that determines the affinity of a compound for the recombinant human androgen receptor (hAR). Competitive binding analysis is performed on baculovirus/Sf9 generated hAR extracts in the presence or absence of differing concentrations of drug and a fixed concentration of ^3H-dihydrotestosterone (^3H-DHT) as tracer. This binding assay method is a modification of a protocol previously described (Chang, et. al. J. Steroid Biochem. 20(1):11-17 1984). Briefly, progressively decreasing concentrations of compounds are incubated in the presence of hAR extract (Chang et al. P.N.A.S. Vol. 89, pp. 5546-5950, 1992), hydroxylapatite and 1 nM ^3H-DHT for one hour at 4° C. Subsequently, the binding reactions are washed three times to completely remove excess unbound ^3H-DHT. hAR bound ^3H-DHT levels are determined in the presence of compounds (=competitive binding) and compared to levels bound when no competitor is present (=maximum binding). Compound binding affinity to the hAR is expressed as the concentration of compound at which one half of the maximum binding is inhibited (the IC50).

[2] = tested on: orchiectomized (ORX) immature male rat; test: Orchiectomized immature rat assay (levator ani and ventral prostate weights); assay type: in vivo, Sprague Dawley rat; details: 4 days, TP 10 mg/kg = 100%, ORX control = 0%; for % TP Control LA: levator ani weight; for % TP Control VP: ventral prostate weight
Method: All animal studies were performed in accordance with the Guide for Care and Use of Laboratory Animals (National Research Council, 1996). Twenty-one day old male Sprague Dawley rats were acquired from Taconic, Inc, Germantown, N.Y. Rats were housed five per cage at standard vivarium conditions ([…], 12-h light/dark cycle), with normal chow diet and tap water ad libitum. At 25 days of age, the rats underwent bilateral orchiectomy surgery (ORX) after sedation with 3-5% Isoflurane. Following the surgery, the animals were treated immediately by daily subcutaneous (s.c.) injection with vehicle (sesame oil), testosterone propionate (TP, 10 mg/kg) and test compounds. The dosage of test compound administered is in mg/kg. At the end of the 4 days of administrations, the animals were sacrificed in a carbon dioxide chamber, the ventral prostate (VP) and levator ani muscle complex (LA) were removed and weighed. The increase in the weights of VP or LA by TP was expressed as 100%, and the ORX control as baseline, 0%; the response of the test compounds was calculated as the percentage increase compared to TP.

Structure (SMILES) | IC50 [1] | other results
CC[C@@H](C)N(C)c1ccc(C#N)c(C(F)(F)F)c1 [Example 7, 4-((R)-sec-Butyl-methyl-amino)-2-trifluoromethyl-benzonitrile] | 1.09 nM | % TP Control LA ([2]; 3 mg/kg s.c.): 40%; % TP Control LA ([2]; 10 mg/kg s.c.): 65%; % TP Control LA ([2]; 30 mg/kg s.c.): 89%; % TP Control VP ([2]; 3 mg/kg s.c.): 23%; % TP Control VP ([2]; 10 mg/kg s.c.): 24%; % TP Control VP ([2]; 30 mg/kg s.c.): 39%
CCN(c1ccc(C#N)c(Cl)c1)C(C)C [Example 48, 2-Chloro-4-(ethyl-isopropyl-amino)-benzonitrile] | 19.7 nM | 
CCCN(CCC)c1ccc(C#N)c(Cl)c1 [Example 49, 2-Chloro-4-(dipropyl-amino)-benzonitrile] | 8.33 nM | 
CC(C)N(C)c1ccc(C#N)c(C#N)c1 [Example 50, 4-(Isopropyl-methyl-amino)-phthalonitrile] | 8.23 nM | 
COC[C@H]1CCCN1c1ccc(C#N)c(C#N)c1 [Example 51, 4-(2-(R)-Methoxymethyl-pyrrolidin-1-yl)-phthalonitrile] | 12.4 nM | 
N#Cc1ccc(N2CCCCCC2)cc1C#N [Example 52, 4-Azepan-1-yl-phthalonitrile] | 5.04 nM | 
CCCN(CCC)c1cc(F)c(C#N)c(F)c1 [Example 53, 2,6-Difluoro-4-(dipropyl-amino)-benzonitrile] | 4.06 nM | 
